Data reported in PMC8789663 (The Journal of Biological Chemistry, 2021).

Legend:
[1] = target: endogenous rat GLP-1 receptor (rat (endogenous in INS-1 832/13 cells and rat islets)) (UniProt P32301)
rat islets [2] = assay: Perifusion assay of rat islet GSIS, step-wise glucose increase 2.8 to 16.7 mM; details: for potentiation of first and second phase GSIS by cyclic nucleotide analog prodrug: 10 μM, representative of six independent experiments; for block of potentiation of GSIS by GLP-1, PKC inhibitors: 10 µM; for block of potentiation of GSIS by GLP-1 (1 nM), PLC inhibitor or negative control: 1 µM, pretreatment for 40 min; for effect of PLC inhibitor or negative control alone on GSIS: 1 µM in Fig. S2
islets = details: raising levels of cAMP; cited from earlier work
Excerpt: Identifying the mechanism for this switch from cAMP-independent to cAMP-dependent insulin secretion is of great interest. Shibasaki et al. ([33]) reported a cAMP-regulated mechanism of insulin secretion that results from “restless newcomer” exocytosis in which Epac2 activation mobilizes cytoplasmic secretory granules so that they quickly transit to the plasma membrane for release without pausing in a “docked” state. When islets are stimulated with glucose alone, this newcomer exocytosis is more prominent during first-phase as compared with second-phase GSIS. Raising levels of cAMP by treatment ...

PKA [3] = test system: T1, PKA; assay: Live-cell FRET assay (435 nm excitation, 485/535 emission ratio, pH 7.4) with PKA substrate reporter AKAR3; inhibition of PKA activity stimulated by GLP-1.; type: cell-based, INS-1 832/13 cells transduced with AKAR3; details: n = 12
T1 construct: endogenous PKA, read out indirectly with FRET reporter AKAR3 (PKA substrate)

GcgR = details: cited from earlier work
GLP-1R = details: cited from earlier work
mouse islets = details: cited from earlier work
β-cell GSIS = details: cited from earlier work
Excerpt: (§1) A selective effect is possible based on our previous report that the cAMP antagonist prodrug Rp-8-Br-cAMPS-pAB abolished first-phase but not second-phase GSIS in response to glucose alone ([25]).

Epac = details: read-out: IC50, block of GLP-1-stimulated cAMP (H188); INS-1 832/13 cells transduced with H188, GLP-1 stimulated
rat islets [4] = assay: Perifusion assay of rat islet GSIS, linear glucose gradient; type: cell-based, Sprague–Dawley rat
Procedure: Monophasic insulin secretion from rat islets was measured in response to a linear gradient of glucose concentrations beginning at 3 mM and ending at 30 mM when delivered over a 50 min time course.
The panels A3–C3 illustrate box and whiskers AUC analyses with accompanying ANOVA derived p values where each symbol is the AUC value for the islets of a single perifusion chamber.

PKA [5] = details: unconjugated Rp-8-Br-cAMPS; cited from earlier work
Excerpt: as §1

Epac1 and Epac2 = details: unconjugated Rp-8-Br-cAMPS; cited from earlier work
Excerpt: as §1

rat perfused pancreas = details: ref 11 (Moens et al.); cited from earlier work
[6] = Rp-8-Br-cAMPS-pAB 10 μM, five independent experiments

endogenous rat GLP-1 receptor (rat (endogenous in INS-1 832/13 cells and rat islets)), sequence (P32301 22-463): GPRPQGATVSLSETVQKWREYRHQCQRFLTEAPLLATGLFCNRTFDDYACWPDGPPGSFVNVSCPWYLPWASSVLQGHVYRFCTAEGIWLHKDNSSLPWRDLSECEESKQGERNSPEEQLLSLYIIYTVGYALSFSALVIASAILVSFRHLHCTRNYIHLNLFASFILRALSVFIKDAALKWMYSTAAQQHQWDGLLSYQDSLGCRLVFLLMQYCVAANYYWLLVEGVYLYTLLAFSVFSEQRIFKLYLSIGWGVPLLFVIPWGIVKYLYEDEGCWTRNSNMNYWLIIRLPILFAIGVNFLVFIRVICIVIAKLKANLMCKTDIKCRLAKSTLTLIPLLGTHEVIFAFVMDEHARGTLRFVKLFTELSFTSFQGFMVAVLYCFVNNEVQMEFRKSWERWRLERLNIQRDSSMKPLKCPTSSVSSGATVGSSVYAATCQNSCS

GLP-1[7-36]amide (ligand)
PKA activity (AKAR3 FRET reporter) in INS-1 832/13 cells [1]: 88 pM
rise of cAMP (H188 FRET reporter) in INS-1 832/13 cells [1]: 1.9 nM

CO[C@@H]1[C@@H]2OP(=O)(OCOC(C)=O)OC[C@H]2O[C@H]1n1c(Sc2ccc(Cl)cc2)nc2c(N)ncnc21 (some centres unmarked) [8-pCPT-2′-O-Me-cAMP-AM]
potentiation of first and second phase GSIS by cyclic nucleotide analog prodrug (rat islets [2]): potentiated

C=C[C@@]1(C)CC(=O)[C@]2(O)[C@@]3(C)[C@@H](O)CCC(C)(C)[C@@H]3[C@H](O)[C@H](OC(C)=O)[C@@]2(C)O1 [forskolin]
newcomer exocytosis during first-phase (islets): potentiates
newcomer exocytosis during second-phase (islets): greatly increasing

CC(=O)Oc1ccc(CSP2(=O)OC[C@H]3O[C@@H](n4c(Br)nc5c(N)ncnc54)[C@H](O)[C@@H]3O2)cc1 (some centres unmarked) [Rp-8-Br-cAMPS-pAB, Rp-8-Br-cAMPS para-acetoxybenzyl (pAB) ester; membrane-permeable prodrug bioactivated by cytosolic esterases to Rp-8-Br-cAMPS]
IC50 (PKA [3]): 2800 nM

COc1ccc2cc(-c3cc(-c4cc(Cl)cc(Cl)c4)nn3[C@@H](C)c3ccc(C(=O)NCCC(=O)O)cc3)ccc2c1 [MK0893]
glucagon action at the GcgR (GcgR): antagonizes
action at the GLP-1R (GLP-1R): antagonizes
glucagon-stimulated insulin secretion from mouse islets (mouse islets): inhibit

CC(=O)Oc1ccc(CSP2(=O)OC[C@H]3O[C@@H](n4c(Br)nc5c(N)ncnc54)[C@H](O)[C@@H]3O2)cc1 (some centres unmarked) [Rp-8-Br-cAMPS-pAB]
effect on first-phase GSIS in response to glucose alone (β-cell GSIS): abolished
effect on second-phase GSIS in response to glucose alone (β-cell GSIS): not
antagonist action versus 5 nM GLP-1 in comparison with 1 nM GLP-1 (rat islets [2]; Rp-8-Br-cAMPS-pAB 10 μM): weaker
block of potentiation of GSIS by glucagon (rat islets [2]; Rp-8-Br-cAMPS-pAB 10 μM vs 10 nM glucagon, three independent experiments): blocked
block of potentiation of first and second phase GSIS by GLP-1 (rat islets [2]; Rp-8-Br-cAMPS-pAB 10 μM vs GLP-1 5, 1, and 0.1 nM): blocked
effect on second-phase GSIS in the presence of GLP-1 (rat islets [2]; Rp-8-Br-cAMPS-pAB 10 μM, GLP-1 1 nM): greatly reduced the amplitude of second-phase GSIS
effect on first-phase GSIS in response to glucose alone (rat islets [2]; [6]): blocked first-phase GSIS
effect on second-phase GSIS in response to glucose alone (rat islets [2]; [6]): little ability to reduce second-phase GSIS
IC50 (Epac): 1400 nM
effect on glucagon-potentiated GSIS in the gradient assay (rat islets [4]; Rp-8-Br-cAMPS-pAB 10 μM vs glucagon 10 nM): blocked
effect on GSIS stimulated by a glucose gradient alone (rat islets [4]; Rp-8-Br-cAMPS-pAB 10 μM, three independent experiments): failed to inhibit

CN(C)C[C@@H]1CCn2cc(c3ccccc32)C2=C(C(=O)NC2=O)c2cn(c3ccccc23)CCO1 [LY 333531]
block of potentiation of GSIS by GLP-1, PKC inhibitors (rat islets [2]): failed to block

Cn1cc(C2=C(c3cn(CCCSC(=N)N)c4ccccc34)C(=O)NC2=O)c2ccccc21 [Ro 31-8220]
block of potentiation of GSIS by GLP-1, PKC inhibitors (rat islets [2]): failed to block

Nc1ncnc2c1nc(Br)n2C1OC2COP(O)(=S)OC2C1O (centres unmarked) [Rp-8-Br-cAMPS]
inhibition of stimulatory effects of endogenous cAMP at PKA (PKA [5]): competitively inhibits
inhibition of stimulatory effects of endogenous cAMP at Epac1 and Epac2 (Epac1 and Epac2): competitively inhibits

COc1ccc2c(c1)CC[C@@H]1[C@@H]2CC[C@]2(C)[C@@H](NCCCCCCN3C(=O)CCC3=O)CC[C@@H]12 [U73343]
block of potentiation of GSIS by GLP-1 (1 nM), PLC inhibitor or negative control (rat islets [2]; GLP-1 1 nM): failed to block
effect of PLC inhibitor or negative control alone on GSIS (rat islets [2]): not reproduced

CC(=O)OCOP1(=O)OCC2OC(n3cnc4c(NC(=O)c5ccccc5)ncnc43)C(O)C2O1 (centres unmarked) [6-Bnz-cAMP-AM]
potentiation of first and second phase GSIS by cyclic nucleotide analog prodrug (rat islets [2]): potentiated

COc1ccc2c(c1)CC[C@@H]1[C@@H]2CC[C@]2(C)[C@@H](NCCCCCCN3C(=O)C=CC3=O)CC[C@@H]12 [U73122]
block of potentiation of GSIS by GLP-1 (1 nM), PLC inhibitor or negative control (rat islets [2]; GLP-1 1 nM): failed to block
effect of PLC inhibitor or negative control alone on GSIS (rat islets [2]): potentiated GSIS

des-His^1-Glu^9-glucagon
insulin secretion in response to glucose alone, perfused rat pancreas (rat perfused pancreas): not reduced
effect on glucagon-potentiated GSIS in the gradient assay (rat islets [4]; des-His1-Glu9-glucagon 3 µM vs glucagon 10 nM, single experiment): not inhibited
effect on GSIS stimulated by a glucose gradient alone (rat islets [4]; des-His1-Glu9-glucagon 3 µM, single experiment): failed to inhibit
